This is an account of results in US6989435B2, “Compounds and methods to inhibit or augment an inflammatory response” (Cambridge University Technical Services Ltd., priority 1997, dated 2006).

Some results are limits rather than exact numbers.

The test system of assay [1] is chemokine-induced THP-1 migration (MCP-1, MIP1α, IL8, SDF1α). Put plainly: Trans-well THP-1 migration assay, across the chemokines tested. Format: cell-based, human. The method, then:
To determine whether an agent inhibits a chemokine-induced activity, such as macrophage recruitment, varying amounts of the agent are mixed with cells in the presence of a known chemoattractant. […] Chemokine (such as MCP-1, MIP1α, IL8 or SDF-1α), at a concentration known to cause significant migration of THP-1 cells in the trans-well migration assay, is placed in the lower compartment (FIG. 1). […] After incubation, the cells are gently removed from the top of the filter with a pipette, 20 μl of 20 mM EDTA in simple PBS is added into each top well, and incubated for 20 minutes at 4° C. The filter is carefully flushed with media using a gentle flow, and removed. […] The media is carefully aspirated from each well, and the converted dye is solubilized by 20 μl of DMSO. Absorbance of converted dye is measured at a wavelength of 595 nm using an ELISA plate reader. The number of migrated cells in each well is then determined by interpolation of the standard curve (see also Imai et al., J. Biol. Chem., 272, 15036 (1997)). […] The framed filter was aligned with the holes in the corner of the filter frame and placed over the wells. Five×10^4 THP-1 cells in 25 μl of RPMI-1640 culture media were added to the upper compartment. Peptides were dissolved in Milli Q water and then serially diluted in culture medium. In most cases, the serially diluted peptides were added to the upper compartment of the chemotaxis chamber. […] After incubation, the cells were gently removed from the top of the filter with a pipette, 20 μl of 20 mM EDTA in PBS was added into each top well, and the mixture was incubated for 20 minutes at 4° C. The filter was then carefully flushed with media using a gentle flow, and removed. […] The media was carefully aspirated from each well, and the converted dye was solubilized by 20 μl of DMSO. Absorbance of converted dye was measured at a wavelength of 595 nm using an ELISA plate reader. […] Representative chemokines included a beta-chemokine (“CC”), MIP-1α, and two alpha-chemokines (“CXC”), IL-8 and SDF-1α. […]

Assay [2] concerns MIP1α induced THP-1 migration. The assay is described as follows: Trans-well THP-1 migration assay, MIP1α as chemoattractant. Type of assay: cell-based, human. The settings on record: Table 4(b); 100 μM peptide; n.s. = no statistically significant inhibition. The method, then:
FIG. 1 is a schematic of the trans-well migration assay. In most experiments, the peptide (wavy line) is added to the upper well with about 50,000 cells (O). The upper and lower wells are separated by a 5 μm or 8 μm pore size PVP-free membrane (- - - -). Chemokine (●) is added to the lower well. After 4 hours, the number of cells that have migrated through the membrane are measured (◯ in lower well).
To determine whether an agent inhibits a chemokine-induced activity, such as macrophage recruitment, varying amounts of the agent are mixed with cells in the presence of a known chemoattractant. For example, a range of known concentrations of an agent, e.g., a chemokine peptide, is incubated with a defined number (e.g., 10^4-10^6) of human THP-1 monocyte cells in individual wells of the top compartment of a trans-well plate. […] A standard curve consisting of a two-fold dilution series of THP-1 cells (in 29 μl) is prepared to accurately quantify the number of cells that have migrated. […] Absorbance of converted dye is measured at a wavelength of 595 nm using an ELISA plate reader. The number of migrated cells in each well is then determined by interpolation of the standard curve (see also Imai et al., J. Biol. Chem., 272, 15036 (1997)). […]

For assay [3], the system named is cultured smooth muscle cells. Put plainly: Co-mitogenic effect of MCP-1 with 0.5% fetal calf serum. Format: cell-based. The conditions noted are these: 100 μM peptide. The method, then: Many chemokines are co-mitogenic with low concentrations of FCS, e.g., 50 ng/ml MCP-1+0.5% FCS is a mitogen for smooth muscle cells. Assays well known to the art for determination of DNA synthesis induced by any known chemokine plus a low concentration (<5%) of FCS on suitable cells (e.g., smooth muscle cells) in the presence and absence of the agent may be employed to screen agents for such inhibitory activity. See Porreca et al., J. Vasc. Res., 34, 58 (1997), the disclosure of which is incorporated by reference herein.
Peptide 3(1-12)[MCP-1] […] MCP-1 has been reported to be a weak co-mitogen with 0.5% fetal calf serum for cultured smooth muscle cells. […] (SEQ ID NO:1) is an MCP-1 receptor antagonist. The observation that peptide 3(1-12) [MCP-1]

On to EICADPKQKWVQ [Peptide 3], for which the “inhibition of migration induced by any of the chemokines of either family” value in assay [1] (100 μM, THP-1) is over 99%. Moreover, the “CC SPECIFICITY” value in assay [1] (Table 7, average inhibitory ED50 versus SDF1 and IL8 divided by average inhibitory ED50 versus MCP-1 and MIP1α) worked out at 1.5. In addition, the “Extent of inhibition of THP-1 migration at 100 μM, MIP1α” value in assay [2] was found to be 99%. Moreover, in assay [3], the “effect on the co-mitogenic effect of MCP-1 for cultured smooth muscle cells” value is reported as “completely abolished”.
